Measurements: article PMC8870583, “EGCG Promotes FUS Condensate Formation in a Methylation-Dependent Manner” (Cells, 2022)

Key:
FUS^RGG3PY = target: T1, FUS^RGG3PY (Homo sapiens, UniProt P35637); assay: 1H-15N HSQC NMR titration (CSP); format: binding; settings: no RNA; EGCG 10-500 µM; 30 µM protein; pH 6.0, 150 mM NaCl, 25 °C; several sites, non-specific
T1 construct: RGG3-PY region, residues 454-526, unmethylated; His6-protein A tag cut by TEV; E. coli BL21(DE3) Star
T1 sequence (P35637 454-526): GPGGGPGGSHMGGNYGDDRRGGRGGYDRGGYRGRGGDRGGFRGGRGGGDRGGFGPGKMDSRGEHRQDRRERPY

FUS RGG3PY = FUS RGG3PY (UniProt P35637 454-526); assay: NMR 1H-15N HSQC titration; 30 uM protein, 0-7.5 uM RNA; unmethylated; CSPs lower than methylated at 4:1, line broadening; 50 mM sodium succinate pH 6.0, 150 mM NaCl, 2 mM TCEP, 0.04% NaN3, 10% D2O, 25 C; settings: protein: recombinant; tags: His6-protein A tag removed by TEV

Row | Molecule | 1H-15N HSQC NMR titration (CSP) (FUS^RGG3PY) | binding result (FUS RGG3PY)
1 | O=C(O[C@@H]1Cc2c(O)cc(O)cc2O[C@@H]1c1cc(O)c(O)c(O)c1)c1cc(O)c(O)c(O)c1 [EGCG] | EGCG can directly interact with the RGG3-PY region of FUS | –
2 | UGUGUGUGUGUGUGUGUGUGUGUG (ssRNA) [(UG)12 RNA] | – | binds
